Measured values: patent US9302999B2, “Substituted triazoles as herbicides” (E. I. DU PONT DE NEMOURS AND COMPANY, priority 2012, dated 2016)

What was measured:
Type in all cases: in vivo
corn (Zea mays) = experiment: Test A pre-/postemergence: corn; settings: for Corn plant response rating: Postemergence; for Plant response rating, Corn: Preemergence
Outline: (§1)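 Compounds, formulated with surfactant in non-phytotoxic solvent, were applied as a directed soil spray preemergence and as postemergence sprays to 2–10 cm, one- to two-leaf seedlings grown in loam soil blended with sand; visual injury, 0–100, assessed ~10 days post-treatment against untreated controls.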

[1] = tested on: wheat (Triticum aestivum); experiment: Test A pre-/postemergence: wheat; settings: for Wheat plant response rating: Postemergence; for Plant response rating, Wheat: Preemergence
Outline: as §1

[2] = tested on: barnyardgrass (Echinochloa crus-galli); experiment: Test B flooded paddy: barnyardgrass; settings: Flood; 250 g ai/ha; applied to paddy water at 2-leaf stage; visually evaluated after 13 to 15 days
Outline: (§2)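 Response scored visually, 0–100 relative to controls, 13–15 days after the compound was applied into paddy water; plants were at the 2-leaf stage in pots kept flooded to 3 cm.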

[3] = tested on: foxtail, giant (giant foxtail, Setaria faberii); experiment: Test A pre-/postemergence: foxtail, giant; settings: for Foxtail, Giant plant response rating: Postemergence; for Plant response rating, Foxtail, Giant: Preemergence
Outline: as §1

[4] = tested on: sedge, umbrella (small-flower umbrella sedge Cyperus difformis); experiment: Test B flooded paddy: sedge, umbrella; settings: Flood; 250 g ai/ha; applied to paddy water at 2-leaf stage; visually evaluated after 13 to 15 days
Outline: as §2

[5] = tested on: barnyardgrass (Echinochloa crus-galli); experiment: Test A pre-/postemergence: barnyardgrass; settings: for Barnyardgrass plant response rating: Postemergence; for Plant response rating, Barnyardgrass: Preemergence
Outline: as §1

rice (Oryza sativa) = experiment: Test B flooded paddy: rice; settings: Flood; 250 g ai/ha; applied to paddy water at 2-leaf stage; visually evaluated after 13 to 15 days
Outline: as §2

[6] = tested on: morningglory (Ipomoea spp.); experiment: Test A pre-/postemergence: morningglory; settings: for Morningglory plant response rating: Postemergence; for Plant response rating, Morningglory: Preemergence
Outline: as §1

[7] = tested on: crabgrass, large (large crabgrass, Digitaria sanguinalis); experiment: Test A pre-/postemergence: crabgrass, large; settings: for Crabgrass, Large plant response rating: Postemergence; for Plant response rating, Crabgrass, Large: Preemergence
Outline: as §1

[8] = tested on: pigweed (Amaranthus retroflexus); experiment: Test A pre-/postemergence: pigweed; settings: for Pigweed plant response rating: Postemergence; for Plant response rating, Pigweed: Preemergence
Outline: as §1

[9] = tested on: velvetleaf (Abutilon theophrasti); experiment: Test A pre-/postemergence: velvetleaf; settings: for Velvetleaf plant response rating: Postemergence; for Plant response rating, Velvetleaf: Preemergence
Outline: as §1

[10] = tested on: ducksalad (Heteranthera limosa); experiment: Test B flooded paddy: ducksalad; settings: Flood; 250 g ai/ha; applied to paddy water at 2-leaf stage; visually evaluated after 13 to 15 days
Outline: as §2

[11] = 125 g ai/ha, 0 to 100 scale, 0 is no effect, 100 is complete control
[12] = 500 g ai/ha, visual rating on 0 to 100 scale (0 no effect, 100 complete control), approximately ten days
[13] = 125 g ai/ha, 0 to 100 scale (0 no effect, 100 complete control)
[14] = 500 g ai/ha, 0 to 100 scale, 0 is no effect, 100 is complete control

Row | SMILES | Corn plant response rating (corn (Zea mays); [11]) | Corn plant response rating (corn (Zea mays); [12]) | Plant response rating, Corn (corn (Zea mays); [13]) | Plant response rating, Corn (corn (Zea mays); [14]) | Wheat plant response rating [1, 11] | Wheat plant response rating [1, 12] | Plant response rating, Wheat [1, 13] | Plant response rating, Wheat [1, 14] | Plant response rating, Barnyardgrass (0 to 100 scale, 0 is no effect, 100 is complete control) [2] | Foxtail, Giant plant response rating [3, 11] | Foxtail, Giant plant response rating [3, 12] | Plant response rating, Foxtail, Giant [3, 13] | Plant response rating, Foxtail, Giant [3, 14] | Plant response rating, Sedge, Umbrella (0 to 100 scale, 0 is no effect, 100 is complete control) [4] | Barnyardgrass plant response rating [5, 11] | Barnyardgrass plant response rating [5, 12] | Plant response rating, Barnyardgrass [5, 13] | Plant response rating, Barnyardgrass [5, 14] | Plant response rating, Rice (0 to 100 scale, 0 is no effect, 100 is complete control) (rice (Oryza sativa)) | Crabgrass, Large plant response rating [7, 11] | also measured
1 | Cc1nn(-c2ccnc(Cl)c2)nc1C(=O)c1cccc(C(F)(F)F)c1 [Compound 4] | 20 | 30 | 0 | 0 | 20 | 40 | 0 | 30 | 20 | 20 | 40 | 80 | 100 | 70 | 20 | 30 | 10 | 60 | 0 | 30 | Morningglory plant response rating [6, 11]: 20; Morningglory plant response rating [6, 12]: 40; Plant response rating, Morningglory [6, 13]: 0; Plant response rating, Morningglory [6, 14]: 40; Crabgrass, Large plant response rating [7, 12]: 70; Plant response rating, Crabgrass, Large [7, 13]: 80; Plant response rating, Crabgrass, Large [7, 14]: 90; Pigweed plant response rating [8, 11]: 80; Pigweed plant response rating [8, 12]: 100; Plant response rating, Pigweed [8, 13]: 50; Plant response rating, Pigweed [8, 14]: 100; Velvetleaf plant response rating [9, 11]: 30; Velvetleaf plant response rating [9, 12]: 30; Plant response rating, Velvetleaf [9, 13]: 0; Plant response rating, Velvetleaf [9, 14]: 0; Plant response rating, Ducksalad (0 to 100 scale, 0 is no effect, 100 is complete control) [10]: 40
2 | Cc1nn(-c2ccccc2)nc1C(=O)c1cccc(C(F)(F)F)c1 [Compound 43] | 20 | 30 | 0 | 10 | 0 | 30 | 0 | 0 | 0 | 20 | 30 | 20 | 90 | 100 | 10 | 20 | 0 | 20 | 0 | 30 | Morningglory plant response rating [6, 11]: 0; Morningglory plant response rating [6, 12]: 40; Crabgrass, Large plant response rating [7, 12]: 40; Plant response rating, Crabgrass, Large [7, 13]: 30; Plant response rating, Crabgrass, Large [7, 14]: 80; Pigweed plant response rating [8, 11]: 50; Pigweed plant response rating [8, 12]: 70; Plant response rating, Pigweed [8, 13]: 50; Plant response rating, Pigweed [8, 14]: 60; Velvetleaf plant response rating [9, 11]: 20; Velvetleaf plant response rating [9, 12]: 20; Plant response rating, Velvetleaf [9, 13]: 0; Plant response rating, Velvetleaf [9, 14]: 0; Plant response rating, Ducksalad (0 to 100 scale, 0 is no effect, 100 is complete control) [10]: 85
3 | Cc1nn(-c2ccc(F)cc2)nc1Oc1ccc(F)c(C(F)(F)F)c1 [Compound 56] | 10 | 20 | 0 | 10 | 10 | 20 | 0 | 10 | 30 | 20 | 80 | 30 | 100 | 80 | 10 | 30 | 0 | 80 | 40 | 50 | Plant response rating, Morningglory [6, 13]: 0; Plant response rating, Morningglory [6, 14]: 10; Crabgrass, Large plant response rating [7, 12]: 80; Plant response rating, Crabgrass, Large [7, 13]: 90; Plant response rating, Crabgrass, Large [7, 14]: 100; Pigweed plant response rating [8, 11]: 100; Pigweed plant response rating [8, 12]: 100; Plant response rating, Pigweed [8, 13]: 30; Plant response rating, Pigweed [8, 14]: 90; Velvetleaf plant response rating [9, 11]: 40; Velvetleaf plant response rating [9, 12]: 90; Plant response rating, Velvetleaf [9, 13]: 0; Plant response rating, Velvetleaf [9, 14]: 10; Plant response rating, Ducksalad (0 to 100 scale, 0 is no effect, 100 is complete control) [10]: 80
4 | Cc1nn(-c2ccc(F)cc2Cl)nc1Cc1ccnc(C(F)(F)F)c1 [Compound 65] | 10 | 20 | 0 | 10 | 0 | 20 | 0 | 0 | 30 | 20 | 70 | 90 | 100 | 75 | 10 | 40 | 10 | 70 | 25 | 20 | Plant response rating, Morningglory [6, 13]: 10; Plant response rating, Morningglory [6, 14]: 20; Crabgrass, Large plant response rating [7, 12]: 50; Plant response rating, Crabgrass, Large [7, 13]: 30; Plant response rating, Crabgrass, Large [7, 14]: 100; Pigweed plant response rating [8, 11]: 90; Pigweed plant response rating [8, 12]: 100; Plant response rating, Pigweed [8, 13]: 80; Plant response rating, Pigweed [8, 14]: 100; Velvetleaf plant response rating [9, 11]: 30; Velvetleaf plant response rating [9, 12]: 60; Plant response rating, Velvetleaf [9, 13]: 0; Plant response rating, Velvetleaf [9, 14]: 10; Plant response rating, Ducksalad (0 to 100 scale, 0 is no effect, 100 is complete control) [10]: 60
